Data reported in patent US11865176B2, “Compositions and methods of modulating anti-tumor immunity” (Dana-Farber Cancer Institute, Inc., priority 2016, dated 2024).

Legend:
[1] = system: splenic T cells (Tconv, CD8+, Treg); test: Cell co-culture and cytokine production ex vivo; assay type: cell-based, mouse
Method: Naïve or KP tumor bearing C57BL/6 mice were sacrificed and total splenocytes were harvested. Spleens were digested with collagenase D (Roche) and Dnase I (Roche) at 37° C. for 30 min, followed by 1×ACS lysis buffer (Biolegend) incubation to lyse red blood cells. The collected total splenocytes were stained with the fluorochome-conjugated cell surface markers CD3, CD4, CD8 and CD25 to isolate different T cell subpopulations, including conventional T cell Tconv (CD3+CD4+[…]), Treg (CD3+CD4+CD25+), and CD8+(CD3+CD8+) using BD FACSAria II SORP cell sorter (BD Bioscience). DAPI (4′,6-diamidino-2-phenylindole) staining was used to exclude dead cells. Sorted cells were cultured in 96-well plates pre-coated with CD3 antibody (eBioscience) and treated with trilaciclib in the presence of CD28 (eBioscience). Cells were collected 3 days after culturing and cytokine production of IFNγ and IL-2 was determined by intracellular staining and analyzed on BD LSRFortessa (BD Bioscience).

CDK4/6 = test: Kinome profiling (KINOMEscan), selectivity; assay type: binding; conditions: compared with abemaciclib
Method: Palbociclib and abemaciclib were profiled by DiscoveRx using KINOMEscan (55). Briefly, the two compounds were tested at 100 nM and 1000 nM. Targeted kinases were visualized using the TREEspot™ compound profile visualization tool. Z'LYTE™ kinase assays were conducted for GSK3α and GSK3β at Life Technologies using Km ATP concentrations.

Question: How did the IL-2 production ([1]; Tconv cells treated ex vivo, 3 days, naïve vs tumor-bearing mice) turn out when CN1CCN(c2ccc(Nc3ncc4cc5n(c4n3)C3(CCCCC3)CNC5=O)nc2)CC1 [trilaciclib] was run?
Answer: increased IL-2 production only in cells from tumor-bearing mice

Question: What about the “increase of IFNγ production” value ([1]; splenic CD8+ T cells from tumor-bearing mice co-cultured with Tregs) of the same compound?
Answer: ~10 fold

Question: What about the “selectivity for CDK4/6” value (CDK4/6) of the same compound?
Answer: significantly more selective for CDK4/6
